Values quoted from earlier work in patent publication US20240016859A1, “MICROENCAPSULATED AND CHROMOSOME INTEGRATED COMPOSITIONS FOR L-DOPA MICROBIOME THERAPY” (Iowa State University Research Foundation, Inc., priority 2020, published 2024).

- solubility in water: slightly soluble
SMILES: N[C@@H](Cc1ccc(O)c(O)c1)C(=O)O [Levodopa, (−)-L-a-amino-b-(3,4-dihydroxybenzene)propanoic acid]
